The target in assay [1] is PTRGER4 (EP4) (Homo sapiens (Human), UniProt P35408). The experiment in a line: hEP4 b-arrestin assay (PathHunter HEK 293 PTGER4 b-arrestin cells). Format: cell-based. The method, boiled down: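 Antagonist mode: compound is given 15 min at 37 °C, then 20 nM (final) PGE2 for 120 min, in HEK293 cells stably expressing EP4 fused to ProLink and β-arrestin 2 fused to EA. Recruitment read as β-gal luminescence after 1 h reagent at room temperature, as percent of DMSO control.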

Assay [2] deals with PTGER2 (EP2) (Homo sapiens (Human), UniProt P43116). The assay is described as follows: hEP2 b-arrestin assay (PathHunter HEK 293 PTGER2 b-arrestin cells). The assay is classed as cell-based. The method, boiled down: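 Readout is β-galactosidase complementation luminescence, expressed as percent of DMSO control (duplicates). PathHunter HEK293 EP2/β-arrestin 2 cells, grown 24 h, received compound for 15 min at 37 °C before a 120 min challenge with PGE2 at 5 μM final, followed by 1 h detection at room temperature.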

Setting [3] is: antagonistic activity on hEP4, mean where measured multiple times.
[4] abbreviates: antagonistic activity on hEP2, mean where measured multiple times.
[5] abbreviates: hEP4 b-arrestin assay (values without asterisk).
Setting [6] is: hEP2 b-arrestin assay (values without asterisk).

One may read the IC50 as the point on the concentration scale where inhibition reaches its midpoint. Higher therefore signals a need for much substance.

Chain of PTRGER4 (EP4) (P35408 whole entry, looked up, the tested form may be a part): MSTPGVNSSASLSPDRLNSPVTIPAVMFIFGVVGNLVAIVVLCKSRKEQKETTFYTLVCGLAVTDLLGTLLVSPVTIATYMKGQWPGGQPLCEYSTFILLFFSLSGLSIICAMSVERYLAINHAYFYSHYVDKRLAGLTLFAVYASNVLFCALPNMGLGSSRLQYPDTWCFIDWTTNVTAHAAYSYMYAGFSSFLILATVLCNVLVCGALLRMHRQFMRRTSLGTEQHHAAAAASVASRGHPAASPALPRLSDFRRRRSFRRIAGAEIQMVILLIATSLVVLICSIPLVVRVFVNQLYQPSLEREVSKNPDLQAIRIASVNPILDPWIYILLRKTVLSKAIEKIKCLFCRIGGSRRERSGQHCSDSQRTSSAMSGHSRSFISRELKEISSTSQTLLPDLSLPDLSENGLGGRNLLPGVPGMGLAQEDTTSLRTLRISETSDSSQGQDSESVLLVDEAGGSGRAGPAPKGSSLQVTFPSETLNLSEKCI
Chain of PTGER2 (EP2) (P43116 whole entry): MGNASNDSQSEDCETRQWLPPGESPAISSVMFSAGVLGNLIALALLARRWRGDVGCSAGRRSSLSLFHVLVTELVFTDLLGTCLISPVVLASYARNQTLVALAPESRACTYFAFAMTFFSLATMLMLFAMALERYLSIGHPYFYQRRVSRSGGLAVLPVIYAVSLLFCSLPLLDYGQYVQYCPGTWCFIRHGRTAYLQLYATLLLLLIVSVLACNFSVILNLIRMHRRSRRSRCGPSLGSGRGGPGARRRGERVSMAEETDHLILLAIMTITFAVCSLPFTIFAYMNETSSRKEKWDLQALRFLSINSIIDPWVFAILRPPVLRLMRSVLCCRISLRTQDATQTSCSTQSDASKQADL

Regarding `COc1ccc(F)c2c1cc(C)n2CCNc1cc(-c2ccc(S(N)(=O)=O)c(C)c2)ncn1` [compound 171], the figures for the IC50 in assay [1] (setting [3]) and in assay [2] (setting [4]) were 231 nM and 112 nM, respectively.

As for `COc1ccc(F)c2c1cc(C)n2CCNc1cc(-c2ccc(-c3nc(C)no3)cc2)ncn1` [compound 302, [2-(7-Fluoro-4-methoxy-2-methyl-indol-1-yl)-ethyl]-{6-[4-(3-methyl-[1,2,4]oxadiazol-5-yl)-phenyl]-pyrimidin-4-yl}-amine], the IC50 amounted to 145 nM in assay [1] (setting [3]) and 33 nM in assay [2] (setting [4]).

As to `CCCCOc1cc(-c2cc(NCCn3c(C)cc4c(OC)cc(F)c(F)c43)ncn2)ccc1C(=O)O` [Example 878, 2-Butoxy-4-{6-[2-(6,7-difluoro-4-methoxy-2-methyl-indol-1-yl)-ethylamino]-pyrimidin-4-yl}-benzoic acid], the IC50 in assay [1] (setting [5]) worked out at 22 nM; in assay [2] (setting [6]) it was 1 nM.

For `CCCc1cc(-c2cc(NCCn3c(C)cc4c(C)ccc(F)c43)ncn2)ccc1C(=O)O` [compound 147, 4-{6-[2-(7-Fluoro-2,4-dimethyl-indol-1-yl)-ethylamino]-pyrimidin-4-yl}-2-propyl-benzoic acid], the IC50 in assay [1] (setting [3]) is 109 nM; in assay [2] (setting [4]) it was 16 nM.

`CCOc1cc(-c2cc(NCCn3c(C)cc4c(OC)cc(Cl)cc43)ncn2)sc1C(=O)O` [Example 871, 5-{6-[2-(6-Chloro-4-methoxy-2-methyl-indol-1-yl)-ethylamino]-pyrimidin-4-yl}-3-ethoxy-thiophene-2-carboxylic acid]: the figures for the IC50 in assay [1] (setting [5]) and in assay [2] (setting [6]) were 16 nM and 2 nM, respectively.

With `CSc1cc(-c2cc(NCCn3c(C)cc4c(Cl)ccc(Cl)c43)ncn2)cc(F)c1C(=O)O` [compound 141, 4-{6-[2-(4,7-Dichloro-2-methyl-indol-1-yl)-ethylamino]-pyrimidin-4-yl}-2-fluoro-6-methylsulfanyl-benzoic acid], the values for the IC50 in assay [1] (setting [3]) and in assay [2] (setting [4]) were 992 nM and 20 nM, respectively.

As for `Cc1ccc(F)c2c1cc(C#N)n2CCNc1cc(-c2cc(C(F)(F)F)c(C(=O)O)s2)ncn1` [Example 858, 5-{6-[2-(2-Cyano-7-fluoro-4-methyl-indol-1-yl)-ethylamino]-pyrimidin-4-yl}-3-trifluoromethyl-thiophene-2-carboxylic acid], the IC50 in assay [1] (setting [5]) was 4 nM; in assay [2] (setting [6]), 22 nM.

On to `CCOc1cc(-c2cc(NCCn3c(C#N)cc4c(OC)ccc(F)c43)ncn2)ccc1CC(=O)O` [Example 873, (4-{6-[2-(2-Cyano-7-fluoro-4-methoxy-indol-1-yl)-ethylamino]-pyrimidin-4-yl}-2-ethoxy-phenyl)-acetic acid], for which the IC50 in assay [1] (setting [5]) turned out to be 18 nM; in assay [2] (setting [6]), 77 nM.

As to `Cc1ccc(F)c2c1cc(C)n2CCNc1cc(-c2ccc(C(=O)O)cc2)ncn1` [compound 15, 4-{6-[2-(7-Fluoro-2,4-dimethyl-indol-1-yl)-ethylamino]-pyrimidin-4-yl}-benzoic acid], the values for the IC50 in assay [1] (setting [3]) and in assay [2] (setting [4]) were 542 nM and 62 nM, respectively.

For the compound `COc1ccc(F)c2c1cc(C)n2CCNc1cc(-c2ccc3cn[nH]c3c2)ncn1` [compound 58, [2-(7-Fluoro-4-methoxy-2-methyl-indol-1-yl)-ethyl]-[6-(1H-indazol-6-yl)-pyrimidin-4-yl]-amine], the IC50 is 477 nM in assay [1] (setting [3]) and 22 nM in assay [2] (setting [4]).

On to `CNc1cc(-c2cc(NCCn3c(C)cc4c(C)cc(F)cc43)ncn2)ccc1C(=O)O` [compound 209], for which the values for the IC50 in assay [1] (setting [3]) and in assay [2] (setting [4]) were 123 nM and 3 nM, respectively.

With `Cc1cc(F)c(F)c2c1cc(C)n2CCNc1cc(-c2ccc(-c3ncno3)cc2)ncn1` [compound 187, [2-(6,7-Difluoro-2,4-dimethyl-indol-1-yl)-ethyl]-[6-(4-[1,2,4]oxadiazol-5-yl-phenyl)-pyrimidin-4-yl]-amine], the IC50 in assay [1] (setting [3]) was 198 nM; in assay [2] (setting [4]) it was 20 nM.

Regarding `CCNC(=O)Nc1ccc(-c2cc(NCCn3c(C)cc4c(OC)cccc43)ncn2)cc1OC` [compound 375, 1-Ethyl-3-(2-methoxy-4-{6-[2-(4-methoxy-2-methyl-indol-1-yl)-ethylamino]-pyrimidin-4-yl}-phenyl)-urea], the IC50 in assay [1] (setting [3]) was 57 nM; in assay [2] (setting [4]), 20 nM.

In the case of `CCOc1cc(-c2cc(NCCn3c(C)cc4c(OC)ccc(F)c43)ncn2)sc1NC(=O)CCO` [Example 1074, N-(3-Ethoxy-5-{6-[2-(7-fluoro-4-methoxy-2-methyl-indol-1-yl)-ethylamino]-pyrimidin-4-yl}-thiophen-2-yl)-3-hydroxy-propionamide], the IC50 in assay [1] (setting [5]) came out at 34 nM; in assay [2] (setting [6]), 9 nM.

Consider `COc1ccc(F)c2c1cc(C)n2CCNc1cc(-c2ccc3[nH]cnc3c2)ncn1` [compound 57, [6-(1H-Benzoimidazol-5-yl)-pyrimidin-4-yl]-[2-(7-fluoro-4-methoxy-2-methyl-indol-1-yl)-ethyl]-amine], for which the values for the IC50 in assay [1] (setting [3]) and in assay [2] (setting [4]) were 113 nM and 16 nM, respectively.

Take `COc1ccc(F)c2c1cc(C#N)n2CCNc1cc(-c2ccc(C(F)(F)C(=O)O)cc2)ncn1` [Example 887, (4-{6-[2-(2-Cyano-7-fluoro-4-methoxy-indol-1-yl)-ethylamino]-pyrimidin-4-yl}-phenyl)-difluoro-acetic acid]: the IC50 in assay [1] (setting [5]) is 177 nM; in assay [2] (setting [6]), 89 nM.

On to `COc1ccc(F)c2c1cc(C)n2CCNc1cc(-c2ccc3nccnc3c2)ncn1` [compound 376], for which the IC50 in assay [1] (setting [3]) came out at 184 nM; in assay [2] (setting [4]), 50 nM.

As to `COc1ccc(Cl)c2c1cc(C)n2CCNc1cc(-c2cc(C)c(C(=O)O)c(Cl)c2)ncn1` [compound 155], the IC50 amounted to 251 nM in assay [1] (setting [3]) and 55 nM in assay [2] (setting [4]).

For `COc1ccc(F)c2c1cc(C#N)n2CCNc1cc(-c2cc3ccccc3[nH]2)ncn1` [Example 961, 7-Fluoro-1-{2-[6-(1H-indol-2-yl)-pyrimidin-4-ylamino]-ethyl}-4-methoxy-1H-indole-2-carbonitrile], the IC50 in assay [1] (setting [5]) stood at 34 nM; in assay [2] (setting [6]), 12 nM.

For `CCN1Cc2cc(-c3cc(NCCn4c(C)cc5c(OC)ccc(F)c54)ncn3)ccc2C1=O` [compound 320], the IC50 came to 345 nM in assay [1] (setting [3]) and 68 nM in assay [2] (setting [4]).

For `CCOc1cc(-c2cc(NCCn3c(C)cc4c(F)c(F)cc(Cl)c43)ncn2)ccc1C(=O)O` [compound 350, 4-{6-[2-(7-Chloro-4,5-difluoro-2-methyl-indol-1-yl)-ethylamino]-pyrimidin-4-yl}-2-ethoxy-benzoic acid], the IC50 is 993 nM in assay [1] (setting [3]) and 6 nM in assay [2] (setting [4]).

With `COc1ccc(F)c2c1cc(C)n2CCNc1cc(-c2ccc(C(=O)O)c(OC3CC4(COC4)C3)c2)ncn1` [Example 1039, 4-{6-[2-(7-Fluoro-4-methoxy-2-methyl-indol-1-yl)-ethylamino]-pyrimidin-4-yl}-2-(2-oxaspiro[3.3]hept-6-yloxy)-benzoic acid], the IC50 in assay [1] (setting [5]) was found to be 224 nM; in assay [2] (setting [6]) it was 104 nM.

For the compound `Cc1ccc(F)c2c1cc(C)n2CCNc1cc(-c2ccc(N)cc2)ncn1` [compound 1, [6-(4-Amino-phenyl)-pyrimidin-4-yl]-[2-(7-fluoro-2,4-dimethyl-indol-1-yl)-ethyl]-amine], the 50% inhibitory concentration (IC50) was 616 nM in assay [1] (setting [3]) and 50 nM in assay [2] (setting [4]).

On to `COc1cc(F)cc2c1cc(C)n2CCNc1cc(-c2ccc(N3CCCC3=O)cc2)ncn1` [compound 317], for which the IC50 in assay [1] (setting [3]) was 873 nM; in assay [2] (setting [4]), 320 nM.

Consider `CCSc1cc(-c2cc(NCCn3c(C)cc4c(C)c(F)cc(Cl)c43)ncn2)ccc1C(=O)O` [compound 341, 4-{6-[2-(7-Chloro-5-fluoro-2,4-dimethyl-indol-1-yl)-ethylamino]-pyrimidin-4-yl}-2-ethylsulfanyl-benzoic acid], for which the IC50 in assay [1] (setting [3]) turned out to be 396 nM; in assay [2] (setting [4]), 42 nM.

Turning to `CCOc1cc(-c2cc(NCCn3c(C#N)cc4c(OC)ccc(F)c43)ncn2)sc1C(=O)NS(C)(=O)=O` [Example 809, N-(5-{6-[2-(2-Cyano-7-fluoro-4-methoxy-indol-1-yl)-ethylamino]-pyrimidin-4-yl}-3-ethoxy-thiophene-2-carbonyl)-methanesulfonamide], the IC50 in assay [1] (setting [5]) was 6 nM; in assay [2] (setting [6]), 3 nM.

Take `CCNC(=O)c1sc(-c2cc(NCCn3c(C#N)cc4c(OC)ccc(F)c43)ncn2)cc1OCC` [Example 1024, 5-{6-[2-(2-Cyano-7-fluoro-4-methoxy-indol-1-yl)-ethylamino]-pyrimidin-4-yl}-3-ethoxy-thiophene-2-carboxylic acid ethylamide]: the IC50 came to 2 nM in assay [1] (setting [5]) and 14 nM in assay [2] (setting [6]).

As to `Cc1cc(F)c(F)c2c1cc(C)n2CCNc1cc(-c2ccc3c(c2)CC(=O)N3)ncn1` [compound 93], the concentration for half-maximal inhibition (IC50) in assay [1] (setting [3]) stood at 475 nM; in assay [2] (setting [4]) it was 183 nM.

On to `CCOc1cc(-c2cc(NCCn3c(C#N)c(F)c4ccccc43)ncn2)sc1C(=O)O` [Example 876, 5-{6-[2-(2-Cyano-3-fluoro-indol-1-yl)-ethylamino]-pyrimidin-4-yl}-3-ethoxy-thiophene-2-carboxylic acid], for which the IC50 in assay [1] (setting [5]) was 32 nM; in assay [2] (setting [6]), 4 nM.

As to `COc1cc(-c2cc(NCCn3c(C)cc4c(OC)cccc43)ncn2)ccc1CO` [compound 36, (2-Methoxy-4-{6-[2-(4-methoxy-2-methyl-indol-1-yl)-ethylamino]-pyrimidin-4-yl}-phenyl)-methanol], the IC50 in assay [1] (setting [3]) turned out to be 219 nM; in assay [2] (setting [4]) it was 5 nM.

`Cc1n[nH]c2cc(-c3cc(NCCn4c(C)cc5c(C)cc(F)cc54)ncn3)ccc12` [compound 52]: the IC50 in assay [1] (setting [3]) was found to be 583 nM; in assay [2] (setting [4]), 221 nM.

`COc1ccc(F)c2c1cc(C#N)n2CCNc1cc(-c2ccc(-c3noc(=O)[nH]3)cc2)ncn1` [Example 825]: the half-maximal inhibitory concentration (IC50) in assay [1] (setting [5]) was determined as 8 nM; in assay [2] (setting [6]) it was 14 nM.
